Data: US20250163488A1, “CONJUGATION METHOD INVOLVING A TRANSGLUTAMINASE AT THE FC REGION COMPRISING A TRIMMED N-GLYCAN” (ADC THERAPEUTICS SA, priority 2022, published 2025)

Target: T1, MTGase (Streptomyces mobaraensis, UniProt P81453)
T1 sequence (P81453 77-407): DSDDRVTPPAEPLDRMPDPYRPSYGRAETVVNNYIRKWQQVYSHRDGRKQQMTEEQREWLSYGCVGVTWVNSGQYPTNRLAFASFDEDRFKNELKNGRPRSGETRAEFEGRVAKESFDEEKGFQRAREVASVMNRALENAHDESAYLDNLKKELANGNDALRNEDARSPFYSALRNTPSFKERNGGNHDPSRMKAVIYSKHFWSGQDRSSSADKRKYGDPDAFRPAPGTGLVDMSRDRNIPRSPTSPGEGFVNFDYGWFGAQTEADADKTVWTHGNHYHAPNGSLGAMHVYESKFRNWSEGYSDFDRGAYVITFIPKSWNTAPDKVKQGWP
Test: MTGase mediated conjugation of linkers to deglycosylated/trimmed antibody X, efficiency by LC-MS
Type: biochemical
Set-up: Efficiency of MTGase mediated conjugation, PNGase F Process: tested at 200 eq
Conditions: linker 200 eq., 37° C., 18 h; for Efficiency of MTGase mediated conjugation, EndoS Process: antibody X glycan trimmed with EndoS; for Efficiency of MTGase mediated conjugation, PNGase F Process: antibody X deglycosylated with PNGase F
Description: Antibody X (2.5 mg) was degylcosylated using PNGase F (379 KU) at an antibody concentration of 1.33 mg/mL, the digest was incubated at 37° C. for 18 h. Deglycosylated antibody X was purified by protein A chromatography followed by buffer exchange into PBS and concentration by UF/DF.
Antibody X (2.5 mg) glycans were trimmed using EndoS (12.5 μg) at an antibody concentration of 1.0 mg/mL, the digest was incubated at 37° C. for 18 h. Trimmed antibody X was purified by protein A chromatography followed by buffer exchange into PBS and concentration by UF/DF.
Solutions of linkers 1-4, 7, 8 & 11 (Table 1) were prepared in PBS. Degylcosylated/trimmed antibody X samples (0.1 mg, 2 mg/mL) were next functionalized with linkers 1-4, 7, 8 & 11 (200 eq.) via MTGase mediated conjugation using 6.7 U of enzyme per mg of antibody. The resulting reactions were incubated at 37° C. for 18 h. Functionalized antibody X samples were purified by protein A chromatography followed by buffer exchange into PBS and concentration via UF/DF. The efficiency of conjugation for the purified samples was determined by LC-MS (Table 2).

[N-]=[N+]=NCCOCCOCCOCCNC(=O)c1ccc(C(=O)NN)cc1 [Compound 7, 4-hydrazidobenzamide-PEG(4u)-azide] was tested. Which “Efficiency of MTGase mediated conjugation, EndoS Process” value (shortened to “Efficiency … EndoS Process”) did it give?
Its value is 100%.

With [N-]=[N+]=NCCOCCOCCOCCNC(=O)c1ccc(NN)cc1 [Compound 8, 4-hydrazinobenzamide-PEG(4u)-azide] as the molecule, how does the “Efficiency of MTGase mediated conjugation, PNGase F Process” value read?
Its value is 91%.

What about the “Efficiency … EndoS Process” value of the same molecule?
The value was 84%.

How did the “Efficiency … EndoS Process” value turn out when [N-]=[N+]=NCCOCCOCCOCCNC(=O)c1ccc(CC(=O)NN)cc1 [Compound 11, 4-hydrazidomethylbenzamide-PEG(4u)-azide] was run?
Its value is 100%.

Which results are given for amine-PEG(3u)-azide [Compound 1]?
Efficiency of MTGase mediated conjugation, PNGase F Process: 100%; Efficiency of MTGase mediated conjugation, EndoS Process: 100%

What does the source list for aminooxy-PEG(3u)-azide [Compound 2]?
Efficiency of MTGase mediated conjugation, PNGase F Process: 95%; Efficiency of MTGase mediated conjugation, EndoS Process: 84%

With hydrazido-PEG(4u)-azide [Compound 3] as the molecule, how does the “Efficiency of MTGase mediated conjugation, PNGase F Process” value read?
The value was 98%.

And the “Efficiency … EndoS Process” value?
The value was 97%.

What does the source list for hydrazino-PEG(4u)-azide [Compound 4]?
Efficiency of MTGase mediated conjugation, PNGase F Process: 89%; Efficiency of MTGase mediated conjugation, EndoS Process: 86%
